The source of these data is patent US20260174857A1, “METHODS OF ADJUVANT TREATMENT FOR ALLERGY IMMUNOTHERAPY” (Revelation Biosciences, Inc., priority 2022, published 2026).

Test [1] concerns the target T1, TLR4 (Mus musculus, UniProt Q9JHF9+Q9QUK6).
T1 construct: endogenous in cells; host or cells: J774 mouse macrophage cell line
T1 sequence (Q9QUK6 26-835): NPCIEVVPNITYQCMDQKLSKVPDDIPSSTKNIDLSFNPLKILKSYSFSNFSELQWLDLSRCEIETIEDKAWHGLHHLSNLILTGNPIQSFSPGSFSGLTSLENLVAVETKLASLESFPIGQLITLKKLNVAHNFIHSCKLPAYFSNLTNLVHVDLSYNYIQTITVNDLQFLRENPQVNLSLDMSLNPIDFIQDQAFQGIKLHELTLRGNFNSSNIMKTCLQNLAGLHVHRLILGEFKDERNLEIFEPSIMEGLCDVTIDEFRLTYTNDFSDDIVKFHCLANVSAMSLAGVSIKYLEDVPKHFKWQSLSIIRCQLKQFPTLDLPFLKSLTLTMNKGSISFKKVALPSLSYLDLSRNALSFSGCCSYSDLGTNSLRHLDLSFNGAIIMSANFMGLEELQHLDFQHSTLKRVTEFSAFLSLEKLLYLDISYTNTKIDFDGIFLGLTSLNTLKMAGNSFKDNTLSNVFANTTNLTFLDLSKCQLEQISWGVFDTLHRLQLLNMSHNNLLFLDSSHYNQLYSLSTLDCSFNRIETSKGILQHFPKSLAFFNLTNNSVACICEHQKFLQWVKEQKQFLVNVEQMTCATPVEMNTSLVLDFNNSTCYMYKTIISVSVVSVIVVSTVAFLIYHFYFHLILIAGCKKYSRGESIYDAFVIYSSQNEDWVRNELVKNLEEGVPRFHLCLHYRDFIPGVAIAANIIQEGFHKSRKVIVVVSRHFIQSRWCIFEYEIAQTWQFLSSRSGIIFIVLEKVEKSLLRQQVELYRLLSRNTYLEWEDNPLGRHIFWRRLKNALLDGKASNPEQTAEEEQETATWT
T1 sequence (Q9JHF9 19-160): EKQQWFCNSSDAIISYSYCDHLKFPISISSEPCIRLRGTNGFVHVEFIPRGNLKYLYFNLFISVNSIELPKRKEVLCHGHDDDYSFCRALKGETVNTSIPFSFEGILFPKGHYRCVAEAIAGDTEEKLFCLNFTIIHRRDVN
Description: in vitro cell based activity assay, IP-10 upregulation in mouse macrophages (J774 cell line). From the text: Interferon-β is required for production of IP-10, therefore IP-10 is considered a surrogate marker for Type I interferon activity.
(§1) IP-10 is an important cytokine associated with stimulation of the TRIF pathway. Evidence of IL-6 and IL-10 and IP-10 upregulation is confirmation that PHAD preparations as noted in this application are capable of TLR4 stimulation, with a bias toward stimulating the TRIF pathway, which is further confirmation of the amelioration or reduction of activity mediated through the MyD88 signaling pathway, which supports the amelioration of pro-inflammatory cytokine production.

Test [2] has as its target T2, TLR4 (Rattus norvegicus, UniProt Q9QX05).
T2 construct: from tissue; host or cells: whole animal (rat), in vivo
T2 sequence (Q9QX05 26-835): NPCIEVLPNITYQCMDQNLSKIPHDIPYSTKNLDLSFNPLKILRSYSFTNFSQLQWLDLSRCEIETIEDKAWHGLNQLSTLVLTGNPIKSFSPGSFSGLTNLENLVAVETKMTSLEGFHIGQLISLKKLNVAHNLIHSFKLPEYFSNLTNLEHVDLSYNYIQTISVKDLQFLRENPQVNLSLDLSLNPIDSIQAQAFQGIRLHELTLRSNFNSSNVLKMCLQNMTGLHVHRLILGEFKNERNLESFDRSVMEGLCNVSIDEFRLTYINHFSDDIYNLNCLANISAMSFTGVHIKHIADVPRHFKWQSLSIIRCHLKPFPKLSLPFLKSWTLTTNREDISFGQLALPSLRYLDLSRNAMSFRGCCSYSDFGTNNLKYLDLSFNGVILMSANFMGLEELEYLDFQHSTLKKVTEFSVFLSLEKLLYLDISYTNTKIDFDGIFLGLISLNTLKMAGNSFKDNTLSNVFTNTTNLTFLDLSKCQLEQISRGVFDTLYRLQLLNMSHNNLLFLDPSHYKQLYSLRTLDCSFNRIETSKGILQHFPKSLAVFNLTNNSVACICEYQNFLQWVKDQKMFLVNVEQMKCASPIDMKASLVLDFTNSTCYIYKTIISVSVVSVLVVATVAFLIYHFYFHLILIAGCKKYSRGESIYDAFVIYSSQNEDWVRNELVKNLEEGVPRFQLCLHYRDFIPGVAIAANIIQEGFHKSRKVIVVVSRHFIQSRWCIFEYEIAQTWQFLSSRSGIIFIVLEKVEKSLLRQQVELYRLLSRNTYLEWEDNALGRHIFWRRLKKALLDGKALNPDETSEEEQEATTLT
As to the kind of experiment: IL-6 and IL-10 cytokine response after IV administration in rats. The class given is in vivo.
Excerpt: as §1

Where [3] appears, read: second dose at 24 hours, compared with first dose.

Turning to “phosphorylated hexaacyl disaccharide [PHAD]”, the “upregulation of IP-10 as a result of TLR4 stimulation” value at TLR4 [1] is on record as “IP-10 upregulation as a function of dose”. For the same substance, at TLR4 [2] (setting [3]), the “anti-inflammatory cytokines (e.g., IL-10) following a second dose” value is on record as “larger increase” and the “pro-inflammatory cytokines (e.g., IL-6) following a second dose” value was “smaller increase”. For the same substance, at TLR4 [2] (two doses of PHAD, after first dose), the “inflammatory and protective cytokines following a first dose” value was “initial increase”.
